Results from ChEMBL document CHEMBL2331192, “Naphthalenyl derivatives for hitting P-gp/MRP1/BCRP transporters” (Bioorg Med Chem, 2013).

Experiments:
[1] = target: T1, Broad substrate specificity ATP-binding cassette transporter ABCG2 (Homo sapiens, UniProt Q9UNQ0); assay: Activity at BCRP (unknown origin) expressed in MDCK cells assessed as interference with rhodamine-123 efflux at 200 nM; assay type: cell-based; conditions: 0.2 µM
T1 sequence (Q9UNQ0 whole entry): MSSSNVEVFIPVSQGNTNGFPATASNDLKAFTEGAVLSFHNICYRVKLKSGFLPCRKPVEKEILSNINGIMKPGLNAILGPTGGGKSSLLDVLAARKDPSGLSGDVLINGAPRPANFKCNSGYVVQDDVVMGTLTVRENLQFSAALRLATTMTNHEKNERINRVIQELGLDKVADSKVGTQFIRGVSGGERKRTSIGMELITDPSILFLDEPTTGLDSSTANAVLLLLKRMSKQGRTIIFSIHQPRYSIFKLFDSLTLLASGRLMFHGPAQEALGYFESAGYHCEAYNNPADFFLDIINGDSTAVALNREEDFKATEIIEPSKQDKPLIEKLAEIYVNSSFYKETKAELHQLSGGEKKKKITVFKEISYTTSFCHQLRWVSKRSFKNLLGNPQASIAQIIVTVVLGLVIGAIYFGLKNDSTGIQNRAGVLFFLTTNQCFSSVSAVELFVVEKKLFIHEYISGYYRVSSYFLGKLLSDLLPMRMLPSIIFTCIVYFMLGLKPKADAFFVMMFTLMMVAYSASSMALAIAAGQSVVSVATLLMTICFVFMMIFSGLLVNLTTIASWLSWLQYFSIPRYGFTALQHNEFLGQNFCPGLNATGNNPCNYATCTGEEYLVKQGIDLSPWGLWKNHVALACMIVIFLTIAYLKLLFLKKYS

[2] = target: T2, ATP-dependent translocase ABCB1 (Homo sapiens, UniProt P08183); assay: Activity at MDR1 (unknown origin) expressed in MDCK cells assessed as ATPase activity after 2 hrs by ATPlite assay; assay type: cell-based
[3] = Apparent permeability across human Caco2 cells after 2 hrs; assay type: ADME, cell-based; conditions: Caco-2
[4] = target: T2, ATP-dependent translocase ABCB1; assay: Activity at MDR1 (unknown origin) expressed in MDCK cells assessed as interference with calcein-AM efflux incubated for 30 mins prior to calcein-Am addition measured after 30 mins by fluorometric analysis; assay type: cell-based
[5] = target: Multidrug resistance-associated protein 1 (Homo sapiens, UniProt P33527); assay: Activity at MRP1 (unknown origin) expressed in MDCK cells assessed as interference calcein-AM efflux incubated for 30 mins prior to calcein-Am addition measured after 30 mins by fluorometric analysis; assay type: cell-based
[6] = target: T1, Broad substrate specificity ATP-binding cassette transporter ABCG2; assay: Activity at BCRP (unknown origin) expressed in MDCK cells assessed as interference with rhodamine-123 efflux; assay type: cell-based

T2 sequence (P08183 whole entry): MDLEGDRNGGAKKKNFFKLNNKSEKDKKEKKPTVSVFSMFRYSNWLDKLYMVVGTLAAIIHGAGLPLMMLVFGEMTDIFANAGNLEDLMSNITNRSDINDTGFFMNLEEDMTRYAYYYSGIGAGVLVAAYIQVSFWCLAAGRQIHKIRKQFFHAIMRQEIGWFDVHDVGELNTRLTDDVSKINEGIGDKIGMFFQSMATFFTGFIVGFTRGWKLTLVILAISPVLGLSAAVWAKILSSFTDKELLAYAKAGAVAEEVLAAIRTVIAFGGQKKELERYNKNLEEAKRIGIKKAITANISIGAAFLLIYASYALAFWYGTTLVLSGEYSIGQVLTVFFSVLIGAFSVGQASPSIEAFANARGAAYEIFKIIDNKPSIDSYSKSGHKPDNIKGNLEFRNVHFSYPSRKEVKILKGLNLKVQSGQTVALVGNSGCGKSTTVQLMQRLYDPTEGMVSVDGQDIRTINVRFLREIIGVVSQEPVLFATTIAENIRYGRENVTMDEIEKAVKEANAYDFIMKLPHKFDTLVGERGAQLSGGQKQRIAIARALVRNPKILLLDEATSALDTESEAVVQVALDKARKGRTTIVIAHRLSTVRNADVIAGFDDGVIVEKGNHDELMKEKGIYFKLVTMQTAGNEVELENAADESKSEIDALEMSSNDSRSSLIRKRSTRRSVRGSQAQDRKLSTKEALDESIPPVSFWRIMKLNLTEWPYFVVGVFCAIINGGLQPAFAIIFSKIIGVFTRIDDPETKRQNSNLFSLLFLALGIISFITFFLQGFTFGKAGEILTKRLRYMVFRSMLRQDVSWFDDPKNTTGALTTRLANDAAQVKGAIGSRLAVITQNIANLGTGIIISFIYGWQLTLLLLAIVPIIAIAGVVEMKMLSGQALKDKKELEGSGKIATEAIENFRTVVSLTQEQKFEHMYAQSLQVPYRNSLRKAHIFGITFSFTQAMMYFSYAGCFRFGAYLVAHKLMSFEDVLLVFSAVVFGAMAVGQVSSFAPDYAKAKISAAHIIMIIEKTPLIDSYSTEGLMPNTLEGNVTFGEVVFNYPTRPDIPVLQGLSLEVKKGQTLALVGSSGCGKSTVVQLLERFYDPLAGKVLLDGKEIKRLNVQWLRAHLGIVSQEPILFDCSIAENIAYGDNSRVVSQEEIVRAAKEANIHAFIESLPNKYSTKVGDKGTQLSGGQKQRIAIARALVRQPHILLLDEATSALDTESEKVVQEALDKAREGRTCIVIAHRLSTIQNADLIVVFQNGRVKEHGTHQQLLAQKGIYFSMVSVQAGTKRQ
Chain of Multidrug resistance-associated protein 1 (P33527 whole entry): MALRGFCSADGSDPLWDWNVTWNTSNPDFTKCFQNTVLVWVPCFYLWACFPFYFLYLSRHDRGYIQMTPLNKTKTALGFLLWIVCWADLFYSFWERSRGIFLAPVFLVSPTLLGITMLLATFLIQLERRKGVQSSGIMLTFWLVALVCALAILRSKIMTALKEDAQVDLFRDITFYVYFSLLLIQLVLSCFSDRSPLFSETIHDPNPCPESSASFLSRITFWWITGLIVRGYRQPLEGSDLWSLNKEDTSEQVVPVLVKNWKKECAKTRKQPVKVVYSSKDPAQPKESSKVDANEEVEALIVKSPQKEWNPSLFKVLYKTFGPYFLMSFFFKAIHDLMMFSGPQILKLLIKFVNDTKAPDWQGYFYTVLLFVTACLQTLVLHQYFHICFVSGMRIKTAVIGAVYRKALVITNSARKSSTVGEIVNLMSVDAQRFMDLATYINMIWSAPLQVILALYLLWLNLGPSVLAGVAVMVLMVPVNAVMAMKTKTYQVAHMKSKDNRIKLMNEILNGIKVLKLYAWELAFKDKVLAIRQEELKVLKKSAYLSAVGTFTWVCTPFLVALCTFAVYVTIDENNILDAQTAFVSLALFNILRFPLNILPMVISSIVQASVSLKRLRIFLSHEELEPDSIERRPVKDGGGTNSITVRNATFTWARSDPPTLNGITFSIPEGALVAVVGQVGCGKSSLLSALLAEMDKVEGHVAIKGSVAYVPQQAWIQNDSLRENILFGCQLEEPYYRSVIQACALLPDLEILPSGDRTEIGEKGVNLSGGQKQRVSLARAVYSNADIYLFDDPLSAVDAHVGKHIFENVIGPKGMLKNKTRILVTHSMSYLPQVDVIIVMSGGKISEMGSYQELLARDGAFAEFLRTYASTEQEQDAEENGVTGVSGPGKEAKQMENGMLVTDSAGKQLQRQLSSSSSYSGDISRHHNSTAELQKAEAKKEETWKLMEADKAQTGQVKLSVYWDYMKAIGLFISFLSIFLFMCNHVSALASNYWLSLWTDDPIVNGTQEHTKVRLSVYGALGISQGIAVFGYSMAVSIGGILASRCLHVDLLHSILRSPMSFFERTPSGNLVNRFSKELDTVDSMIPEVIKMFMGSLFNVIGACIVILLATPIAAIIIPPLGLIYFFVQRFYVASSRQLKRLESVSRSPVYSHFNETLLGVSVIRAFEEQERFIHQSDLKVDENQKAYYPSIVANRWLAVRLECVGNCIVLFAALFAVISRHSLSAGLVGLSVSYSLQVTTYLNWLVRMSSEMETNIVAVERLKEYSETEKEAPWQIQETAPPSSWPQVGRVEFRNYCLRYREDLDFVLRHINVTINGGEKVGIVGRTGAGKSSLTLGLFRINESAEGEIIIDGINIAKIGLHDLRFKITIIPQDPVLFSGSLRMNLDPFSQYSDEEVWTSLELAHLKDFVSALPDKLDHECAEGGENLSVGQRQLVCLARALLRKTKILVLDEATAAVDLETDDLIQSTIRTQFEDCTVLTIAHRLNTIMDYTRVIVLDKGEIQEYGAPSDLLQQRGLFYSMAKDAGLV

| SMILES | Activity [1] | Activity [2] | Papp at 2 h [3] | EC50 [4] | EC50 [5] | EC50 [6] |
| --- | --- | --- | --- | --- | --- | --- |
| COc1cc2c(cc1OC)CN(Cc1csc(-c3ccc4cc(Br)ccc4c3)n1)CC2 | Not Active | Active | 0.59 ×10⁻⁶ cm/s |  |  |  |
| COc1cc2c(cc1OC)CN(Cc1ccc(-c3ccc4ccccc4c3)o1)CC2 |  | Not Active | 0.33 ×10⁻⁶ cm/s | 7.1 µM | > 100 µM |  |
| COc1ccc2cc(-c3ccc(CN4CCc5cc(OC)c(OC)cc5C4)o3)ccc2c1 |  | Not Active | 0.408 ×10⁻⁶ cm/s | 2.9 µM | > 100 µM |  |
| COc1cc2c(cc1OC)CN(Cc1coc(-c3ccc4ccccc4c3)n1)CC2 |  | Not Active | 0.038 ×10⁻⁶ cm/s | 2.3 µM |  |  |
| COc1cc2c(cc1OC)CN(Cc1coc(-c3ccc4cc(F)ccc4c3)n1)CC2 |  | Not Active | 0.082 ×10⁻⁶ cm/s |  |  |  |
| COc1cc2c(cc1OC)CN(Cc1coc(-c3ccc4cc(Br)ccc4c3)n1)CC2 |  | Not Active | 0.32 ×10⁻⁶ cm/s | 1.8 µM | > 100 µM |  |
| COc1ccc2cc(-c3nc(CN4CCc5cc(OC)c(OC)cc5C4)co3)ccc2c1 | Not Active | Active | 0.38 ×10⁻⁶ cm/s | 0.6 µM | 14.7 µM |  |
| COc1cc2c(cc1OC)CN(Cc1coc(-c3ccc4cc(O)ccc4c3)n1)CC2 |  | Not Active | 0.157 ×10⁻⁶ cm/s |  |  |  |
| COc1cc2c(cc1OC)CN(Cc1csc(-c3ccc4ccccc4c3)n1)CC2 |  | Not Active | 2.37 ×10⁻⁶ cm/s | 3.5 µM | 3.2 µM |  |
| COc1cc2c(cc1OC)CN(Cc1csc(-c3ccc4cc(F)ccc4c3)n1)CC2 |  | Not Active | 0.95 ×10⁻⁶ cm/s | 4.8 µM | 8.8 µM |  |
| COc1ccc2cc(-c3nc(CN4CCc5cc(OC)c(OC)cc5C4)cs3)ccc2c1 | Not Active | Active | 0.6 ×10⁻⁶ cm/s |  |  |  |
| COc1cc2c(cc1OC)CN(CCCC1CCCc3c(OC)cccc31)CC2 (centres undefined) |  |  |  |  | > 100 µM |  |
| COc1cc2c(cc1OC)CN(Cc1ccc(-c3ccc(O)cc3)cc1)CC2 |  |  |  | 0.69 µM | 9.3 µM | 73 µM |
| COc1cc2c(cc1OC)CN(CC/C=C1\CCCc3c(OC)cccc31)CC2 |  |  |  | 1.5 µM | 2.8 µM |  |
